Measurements reported in US5536744A, “Imidazolinoxyl derivatives” (Dojindo Laboratories, priority 1993, dated 1996).
Read-outs that look alike come from different tables or passages of the source.

Key:
[1] = test system: ring samples of the circumflex branch (coronary artery); test: In vitro test: relaxation of ring samples of the circumflex branch precontracted by prostaglandin F2α (isometric tension); design: species or system mongrel adult dogs; conditions: for EC50: Canis lupus familiaris, read-out: ED50 value expressed in terms of a minus logarithm of the administered concentration, endothelium absent (converted)
Method: After an anesthetization of the mongrel adult dogs, the extracted ring samples (outer diameter: about 2 mm) of the circumflex branch were prepared, hung in a chamber filled with 3 ml of a Krebs buffer which was oxidated (with 95% oxygen and 5% […]), balanced with an initial tension of 2 g and subjected to a precontraction by prostaglandin F2α (concentration in the chamber: 2 μM).
To this was added the compound A on an accumulated manner whereby its concentration in the chamber became from 1 μM to 1 mM and the resulting changes in the isometric tension were measured using a tranducer (manufactured by Minebea) and recorded in a pen recorder (SR6211 manufactured by Graphtec). Incidentally, the changes in the tension were evaluated on a basis that the precontraction by prostaglandin F2α was 100%. In some of the samples, the endothelium was exfoliated (confirmed by a disappearance of the relaxation to 1 μM of acetylcholine) and, furthermore, they were subjected to a pretreatment with Methylene Blue, an inhibitor for a soluble guanylate cyclase, (concentration in the chamber: 10 μM; administered 30 minutes before) whereby the effect was investigated.
Therefore, it is supposed that the compounds of the present invention activated the guanylate cyclase on a continued basis whereby the blood vessel was continuously relaxed.

[2] = test system: circumflex branch of the left coronary artery; test: Comparative Example 1: blood flow after administration of compound A reduced with ascorbic acid; assay type: in vivo, mongrel dogs
Method: The operation of Example 4 was conducted by administering the compound A wherefrom the N-oxyl radical was inactivated only after reducing with ascorbic acid. […] It is therefore apparent that the pharmacological action was due to the radical in the molecule and that the compounds of the present invention are the pharmaceuticals of a new type.

[3] = Behavior of compound A in blood flow: blood and urine samples determined by electronic spin resonance after the administration; conditions: for clearance (in words) / excretion from the kidney: dog, in vivo
Method: Thus, within a certain period after the administration, samples of blood and urine were collected and "a concentration of the compound A which was unchanged and retained" and "a total concentration after oxidization with potassium ferricyanide" were determined by means of an electronic spin resonance (RF80; Nippon Denshi).

[4] = test system: circumflex branch of the left coronary artery; test: Test on the relaxation of coronary arteries: coronary blood flow and blood flow status (haemodynamics) in anesthetized open-chest dogs, intracoronary administration; assay type: in vivo, mongrel adult dogs; conditions: for Blood Flow at Rotation Branch: 4 min
Method: Twenty mongrel adult dogs were anesthetized with 30 mg/kg pentobarbital, their breasts were opened under an artificial respiration and heparin (3,000 IU/kg; each 1,000 IU/mg administered intravenously every 30 minutes thereafe) and aspirin (17 mg/kg) were administered. Then a cannula was inserted near the circumflex branch of the left coronary artery and a perfusion was conducted by means of a bypath from the whole left carotid artery. Coronary blood flow was measured, by an electromagnetic blood flowmeter (MFV-3200 manufactured by Nippon Koden) via a probe for measuring the blood flow (manufactured by Nippon Koden) located at the center of the bypath while the artery pressure and the left cardiac pressure were measured at an underarm artery and by means of a catheter inserted from the apex, respectively.

[5] = test system: circumflex branch of the left coronary artery; test: Effect of various pharmaceuticals on coronary blood flow increase by administration of compound A; assay type: in vivo, mongrel adult dogs; conditions: 1.0 mM in artery
Method: The compound A was administered for four minutes, by the same manner as in Example 6, to a control group, to a group (LNAME-treated group) which was pretreated with a methyl ester of NG-nitro-L-arginine which was an inhibitor for the production of nitrogen monoxide caused by endothelium (by administering to the coronary artery at the dose of 200 μM for six minutes), to a group (8PT-treated group) which was pretreated with 8-phenyltheophylline which was an adenosnine antagonist (by administering to the coronary artery at the dose of 30 ng/kg/minute) an a group (autonomic nerve blocking group) which was pretreated with a pharmacological autonomic blocking agent (by an intravenous administration of 0.1 mg/kg of atropine, 1 mg/kg of propranolol and 2 mg/kg of phentolamine) to make the concentration of the compound A in the coronary artery 1.0 mM whereby the results were compared.

Question: For `CN(C)c1ccc2nc3ccc(=[N+](C)C)cc-3sc2c1` [Methylene Blue, reference compound], which “inhibition of the coronary artery relaxing action of compound A (in words)” value ([1]; endothelium absent, 10 μM, 30 minutes before) is on record?
Answer: found to inhibit that

Question: With `CC1(C)N=C(c2ccc(C(=O)O)cc2)N(O)C1(C)C` as the compound, how does the “blood flow after the administration” value ([2]; 1.0 mM (FIG. 3), before the administration 22.4 ml/minute) read?
Answer: 22.8 mL/min

Question: What about the “pharmacological action (in words)” value ([2]; after reducing with ascorbic acid) of the same compound?
Answer: completely disappeared

Question: What about the “change in the blood flow (in words)” value ([2]; before vs after the administration, FIG. 3) of the same compound?
Answer: no changes in the blood flow

Question: And the “clearance (in words)” value [3]?
Answer: very prompt

Question: And the “excretion from the kidney” value [3]?
Answer: rapidly excreted from the kidney

Question: Which results are given for `CC1(C)N=C(c2ccc(C(=O)O)cc2)N([O])C1(C)C` [Compound A]?
Answer: Av. Blood Pressure ([4]; 0.1 mM in artery): 130 ± 8 mmHg; Left Cardiac dp/dt ([4]; 0.1 mM in artery): 1132 ± 60 mmHg/sec; Pres. at Final Stage of Left Cardiac Dilation ([4]; 0.1 mM in artery): 11 ± 2 mmHg; Pulse Numbers ([4]; 0.1 mM in artery): 155 ± 8 min⁻¹; Blood Flow at Rotation Branch ([4]; 0.1 mM in artery): 29.8 ± 3.6 mL/min; Av. Blood Pressure ([4]; 0.3 mM in artery): 133 ± 8 mmHg; Left Cardiac dp/dt ([4]; 0.3 mM in artery): 1210 ± 63 mmHg/sec; Pres. at Final Stage of Left Cardiac Dilation ([4]; 0.3 mM in artery): 10 ± 2 mmHg; Pulse Numbers ([4]; 0.3 mM in artery): 154 ± 8 min⁻¹; Blood Flow at Rotation Branch ([4]; 0.3 mM in artery, p < 0.05 to the control): 41.5 ± 5.7 mL/min; duration of effect on coronary blood flow after completion of the administration ([4]; 1 mM for four minutes): ≥ 30 min; increase in coronary blood flow (fold) ([4]; 1 mM for four minutes): about three; increasing rate of coronary blood flow ([4]; 1 mM for four minutes): ca. 200%; Av. Blood Pressure ([4]; 1.0 mM in artery): 132 ± 7 mmHg; Left Cardiac dp/dt ([4]; 1.0 mM in artery): 1241 ± 50 mmHg/sec; Pres. at Final Stage of Left Cardiac Dilation ([4]; 1.0 mM in artery): 10 ± 2 mmHg; Pulse Numbers ([4]; 1.0 mM in artery): 157 ± 8 min⁻¹; Blood Flow at Rotation Branch ([4]; 1.0 mM in artery, p < 0.01 to the control, 0.1 mM and 0.3 mM): 89.7 ± 10.6 mL/min; blood pressure (in words) ([4]; 0.1, 0.3 and 1.0 mM in artery): no change; contracting power of the heart (in words) ([4]; 0.1, 0.3 and 1.0 mM in artery): rather improved; left cardiac dp/dt (in words) ([4]; 0.1, 0.3 and 1.0 mM in artery): increasing tendency; pressure at the final stage of the left cardiac dilation (in words) ([4]; 0.1, 0.3 and 1.0 mM in artery): no change; pulse numbers (in words) ([4]; 0.1, 0.3 and 1.0 mM in artery): no change; coronary blood flow (in words) ([4]; 0.1, 0.3 and 1.0 mM in artery, FIG. 2): significant increase in the coronary blood flow; side effect (in words) ([4]; intracoronary administration): no side effect was noted; influence of the endothelium on coronary artery relaxation (in words) ([1]; 1 μM to 1 mM, with vs without endothelium, FIG. 4): stronger than that in the absence of the endothelium; EC50 ([1]; no Methylene Blue): 10 µM; EC50 ([1]; with Methylene Blue 10 μM, 30 minutes before, p<0.01): 79.4 µM; % Increase of blood flow in rotary branch ([5]; 8PT-treated group): 120 ± 10%; Blood Flow in Rotary Branch, after administration of Compd A ([5]; 8PT-treated group, before 23.1 ± 2.7): 51.6 ± 5.8 mL/min; influence of pretreatments on the action of the compound A (in words) ([5]; LNAME, 8-phenyltheophylline, autonomic blockade): none of the pharmaceuticals affected on the action of the compound A; % Increase of blood flow in rotary branch ([5]; LNAME-treated group): 155 ± 28%; Blood Flow in Rotary Branch, after administration of Compd A ([5]; LNAME-treated group, before 26.1 ± 2.7): 67.0 ± 11.5 mL/min; % Increase of blood flow in rotary branch ([5]; autonomic nerve blocked group): 137 ± 56%; Blood Flow in Rotary Branch, after administration of Compd A ([5]; autonomic nerve blocked group, before 19.5 ± 3.3): 49.3 ± 18.5 mL/min; % Increase of blood flow in rotary branch ([5]; control group): 164 ± 31%; Blood Flow in Rotary Branch, after administration of Compd A ([5]; control group, before 32.0 ± 2.1): 84.9 ± 13.7 mL/min; reduction in blood (stability of N-oxyl radical) ([3]; by ascorbic acid, etc. in blood): quickly reduced by ascorbic acid, etc. in blood; clearance (in words) [3]: very prompt; excretion from the kidney [3]: rapidly excreted from the kidney; total amount of compound A remaining in the blood ([3]; one minute after the administration): about 0.3%
